Data published in ChEMBL document CHEMBL5385913, “First-in-Class Dual EZH2-HSP90 Inhibitor Eliciting Striking Antiglioblastoma Activity In Vitro and In Vivo” (J Med Chem, 2024).
Active and inactive are the calls of the source. The rule behind the calls is not given here.

What was measured:
GBM [1] = assay: Induction of ROS production in TMZ-resistant patient-derived human GBM cells assessed as increase in cleaved caspase-3 level upto 5 uM measured for 48 hrs by Western blot analysis; format: functional, cell-based
[2] = Downregulation of NASP level in TMZ-resistant patient-derived human GBM cells assessed as fold change at 2 uM by GlioVis analysis (reference value: 5.08); format: functional
GBM [3] = assay: Upregulation of SERPINE1 gene expression in TMZ-resistant patient-derived human GBM cells by KEGG analysis; format: functional, cell-based
GBM [4] = assay: Induction of ROS production in TMZ-resistant patient-derived human GBM cells assessed as decrease in GPX1 level upto 10 uM measured after 48 hrs by Western blot analysis; format: functional, cell-based
GBM [5] = assay: Downregulation of cyclin B level in TMZ-resistant patient-derived human GBM cells upto 5 uM incubated for 48 to 72 hrs by Western blot analysis; format: functional, cell-based; details: time 48-72 hrs
GBM [6] = assay: Suppression of DNA repair in TMZ-resistant patient-derived human GBM cells by GSEA analysis; format: functional, cell-based
[7] = Effect on processing DNA double-strand break in TMZ-resistant patient-derived human GBM cells assessed as fold decrease in DNA2 gene expression at 2 uM (reference value: 2.75); format: functional
[8] = target: Histone-lysine N-methyltransferase EZH2 (Homo sapiens) (UniProt Q15910); assay: Inhibition of EZH2-mediated H3K27 trimethylation in patient-derived human GBM cells upto 10 uM measured after 48 hrs by Western blot analysis; format: cell-based
GBM [9] = assay: Induction of cell cycle arrest in TMZ-resistant patient-derived human GBM cells at 1 uM incubated for 24 to 72 hrs by PI staining based flow cytometry; format: functional; details: time 24-72 hrs
[10] = Downregulation of CENPA level in TMZ-resistant patient-derived human GBM cells assessed as fold change at 2 uM by GlioVis analysis (reference value: 3.64); format: functional
GBM [11] = assay: Downregulation of HNRNPA3 gene expression in TMZ-resistant patient-derived human GBM cells by KEGG analysis; format: functional, cell-based
GBM [12] = assay: Effect on homologous recombination in TMZ-resistant patient-derived human GBM cells assessed as fold decrease in MND1 gene expression at 2 uM (reference value: 2.95); format: functional
GBM [13] = assay: Upregulation of HSPA1A gene expression in TMZ-resistant patient-derived human GBM cells by KEGG analysis; format: functional, cell-based
GBM [14] = assay: Upregulation of CTNNB1 gene expression in TMZ-resistant patient-derived human GBM cells by KEGG analysis; format: functional, cell-based
GBM [15] = assay: Antitumor activity against TMZ-resistant patient-derived human GBM cells xenografted in NOD.CB17-Prkdcscid/NCrCrl mouse assessed as reduction in tumor growth at 20 mg/kg, ip treated twice per week; format: functional, organism-based
[16] = Downregulation of MIS18BP1 level in TMZ-resistant patient-derived human GBM cells assessed as fold change at 2 uM by GlioVis analysis (reference value: 3.87); format: functional
GBM [17] = assay: Effect on homologous recombination in TMZ-resistant patient-derived human GBM cells assessed as fold decrease in RMI1 gene expression at 2 uM (reference value: 3.44); format: functional
GBM [18] = assay: Effect on homologous recombination in TMZ-resistant patient-derived human GBM cells assessed as fold decrease in PSMC3IP gene expression at 2 uM (reference value: 2.71); format: functional
GBM [19] = assay: Upregulation of ARF3 gene expression in TMZ-resistant patient-derived human GBM cells by KEGG analysis; format: functional, cell-based
[20] = Downregulation of CENPO level in TMZ-resistant patient-derived human GBM cells assessed as fold change at 2 uM by GlioVis analysis (reference value: 2.67); format: functional
GBM [21] = assay: Downregulation of MCM3 gene expression in TMZ-resistant patient-derived human GBM cells by KEGG analysis; format: functional, cell-based
GBM [22] = assay: Effect on homologous recombination in TMZ-resistant patient-derived human GBM cells assessed as fold decrease in EME1 gene expression at 2 uM (reference value: 2.94); format: functional
[23] = Downregulation of CENPW level in TMZ-resistant patient-derived human GBM cells assessed as fold change at 2 uM by GlioVis analysis (reference value: 2.83); format: functional
GBM [24] = assay: Downregulation of RPS6 gene expression in TMZ-resistant patient-derived human GBM cells by KEGG analysis; format: functional, cell-based
GBM [25] = assay: Induction of ROS production in TMZ-resistant patient-derived human GBM cells assessed as decrease in SOD1 level upto 10 uM measured after 48 hrs by Western blot analysis; format: functional, cell-based
[26] = Effect on processing DNA double-strand break in TMZ-resistant patient-derived human GBM cells assessed as fold decrease in BLM gene expression at 2 uM (reference value: 3.55); format: functional
[27] = Downregulation of OIP5 level in TMZ-resistant patient-derived human GBM cells assessed as fold change at 2 uM by GlioVis analysis (reference value: 2.31); format: functional
GBM [28] = assay: Effect on homologous recombination in TMZ-resistant patient-derived human GBM cells assessed as fold decrease in MSH5 gene expression at 2 uM (reference value: 1.52); format: functional
GBM [29] = assay: Effect on homologous recombination in TMZ-resistant patient-derived human GBM cells assessed as fold decrease in RAD21 gene expression at 2 uM (reference value: 5.77); format: functional
GBM [30] = assay: Downregulation of RPL35 gene expression in TMZ-resistant patient-derived human GBM cells by KEGG analysis; format: functional, cell-based
[31] = target: Histone-lysine N-methyltransferase EZH2 (Homo sapiens) (UniProt Q15910); assay: Inhibition of EZH2 in patient-derived human GBM cells upto 10 uM measured after 48 hrs by Western blot analysis; format: cell-based
GBM [32] = assay: Effect on homologous recombination in TMZ-resistant patient-derived human GBM cells assessed as fold decrease in BLM gene expression at 2 uM (reference value: 3.55); format: functional
GBM [33] = assay: Downregulation of CENPI level in TMZ-resistant patient-derived human GBM cells upto 5 uM incubated for 48 to 72 hrs by Western blot analysis; format: functional, cell-based; details: time 48-72 hrs
GBM [34] = assay: Upregulation of EHD1 gene expression in TMZ-resistant patient-derived human GBM cells by KEGG analysis; format: functional, cell-based
GBM [35] = assay: Downregulation of MCM7 gene expression in TMZ-resistant patient-derived human GBM cells by KEGG analysis; format: functional, cell-based

Chain of Histone-lysine N-methyltransferase EZH2 (Homo sapiens) (Q15910 whole entry, looked up): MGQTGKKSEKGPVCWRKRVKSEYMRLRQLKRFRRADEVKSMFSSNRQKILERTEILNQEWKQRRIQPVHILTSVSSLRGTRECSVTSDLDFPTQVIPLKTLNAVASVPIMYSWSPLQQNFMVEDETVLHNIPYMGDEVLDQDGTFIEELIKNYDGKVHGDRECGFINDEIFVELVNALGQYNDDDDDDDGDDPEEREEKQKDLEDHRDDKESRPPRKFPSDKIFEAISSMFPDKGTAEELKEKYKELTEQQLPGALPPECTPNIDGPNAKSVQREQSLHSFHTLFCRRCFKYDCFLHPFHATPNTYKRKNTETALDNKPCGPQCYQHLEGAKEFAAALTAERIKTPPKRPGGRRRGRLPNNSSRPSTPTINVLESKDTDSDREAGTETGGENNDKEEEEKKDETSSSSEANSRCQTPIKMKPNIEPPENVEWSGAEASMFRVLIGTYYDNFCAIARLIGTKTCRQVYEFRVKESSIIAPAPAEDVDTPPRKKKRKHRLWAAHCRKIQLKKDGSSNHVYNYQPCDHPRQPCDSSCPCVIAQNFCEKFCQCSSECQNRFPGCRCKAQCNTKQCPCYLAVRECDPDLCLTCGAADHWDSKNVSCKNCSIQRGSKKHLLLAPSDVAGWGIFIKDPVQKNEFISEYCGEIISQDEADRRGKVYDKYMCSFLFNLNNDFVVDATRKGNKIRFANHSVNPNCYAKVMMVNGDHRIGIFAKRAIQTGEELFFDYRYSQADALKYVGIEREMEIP

SMILES: CCN(c1cc(-c2cccc(N(C)C(=O)c3cc(C(C)C)c(O)cc3O)c2)cc(C(=O)NCc2c(C)cc(C)[nH]c2=O)c1C)C1CCOCC1
- Activity (GBM [1]): Active
- fold change (FC) [2]: 3.41
- Activity (GBM [3]): Active
- Activity (GBM [4]): Active
- Activity (GBM [5]): Active
- Activity (GBM [6]): Active
- fold change (FC) [7]: 1.33
- inhibition [8]: Active
- Activity (GBM [9]): Active
- fold change (FC) [10]: 0.81
- Activity (GBM [11]): Active
- fold change (FC) (GBM [12]): 0.36
- Activity (GBM [13]): Active
- Activity (GBM [14]): Active
- Activity (GBM [15]): Active
- fold change (FC) [16]: 2.43
- fold change (FC) (GBM [17]): 2.33
- fold change (FC) (GBM [18]): 1.17
- Activity (GBM [19]): Active
- fold change (FC) [20]: 1.53
- Activity (GBM [21]): Active
- fold change (FC) (GBM [22]): 0.75
- fold change (FC) [23]: 0.72
- Activity (GBM [24]): Active
- Activity (GBM [25]): Active
- fold change (FC) [26]: 0.72
- fold change (FC) [27]: 0.66
- fold change (FC) (GBM [28]): 0.44
- fold change (FC) (GBM [29]): 4.69
- Activity (GBM [30]): Active
- inhibition [31]: Active
- fold change (FC) (GBM [32]): 0.72
- Activity (GBM [33]): Active
- Activity (GBM [34]): Active
- Activity (GBM [35]): Active
